Values quoted from earlier work as cited in patent US20090069345A1, “Pharmaceutically Stable Compound Consisting of Timolol, Dorzolamide and Brimonidine” (priority 2007, published 2009).

Experiments:
[1] = system: eye of a rabbit; conditions: concentrations above those normally used in formulations
[2] = intravenous injection, first 3 hours

dose excreted in urine [2]	Compound	toxicity to the eye [1]
	Benzalkonium chloride	damaging
about 80%	OC[C@@H](O)[C@@H](O)[C@H](O)[C@H](O)CO [Mannitol]	
